Source: patent US11299524B2, “KIF13B-derived peptide and method of inhibiting angiogenesis” (THE BOARD OF TRUSTEES OF THE UNIVERSITY OF ILLINOIS, priority 2016, dated 2022)

How the values were obtained:
[1] = test system: HUVECs; assay: VEGF-induced proliferation, WST-1 assay; type: cell-based, human; conditions: 3 μmol/L
Protocol: VEGF-induced proliferation and viability of HUVECs were assessed by the WST-1 assay (Roche) as previously described (Cai, et al. (2006) Microvasc. Res. 71:20-31; Jones, eta 1. (2005) Br. J. Pharmacol. 145:1093-102). […] Then HUVECs were stimulated with VEGF (2.2 nmol/L), with and without DUF2C5 (1, 3, and 10 μmol/L), or negative control peptide (CT23, 3 μmol/L) for 48 hours to test VEGF-induced proliferation by WST-1 assay in a 96-well format.
The effects of DUF2C5 on VEGF-induced proliferation were subsequently determined by the WST-1 assay.

[2] = test system: HUVECs; assay: uptake of biotin-tagged peptides by HUVECs, flow cytometry; type: cell-based, human; conditions: biotin-tagged peptide, 2 hours incubation
Protocol: Next, EC uptake of the peptides by HUVECs was determined. Both DUF2C5 and CT23 were designed to have high pI (pH at which the molecules carry no net charge), pI 12.1 and 10.4, respectively; thus, in neutral pH, both peptides have a positive charge important for cellular uptake (Jones, et al. (2005) Br. J. Pharmacol. 145:1093-1102). DUF2C5 and CT23 were synthesized with a biotin-tag and visualized using streptavidin-[…].

[3] = target: VEGFR2 (Homo sapiens, UniProt P35968); assay: pull-down binding assay with endogenous VEGFR2 from HUVEC lysates; parameters: endogenous in cells; host or cells: HUVEC; conditions: HUVEC lysate, anti-VEGFR2 western blot
Text: Truncated mutants of KIF13B were expressed in BL21 (DE3) or Rosetta-gami and purified as previously described (Yamada, et al. (2014) J. Cell Sci. 127:4518-30; Yamada, et al. (2007) Biochemistry 46:10039-45).
Using recombinant proteins, the binding sites on KIF13B mediating the interaction with VEGFR2 were identified. KIF13B has a motor, forkhead-associated, membrane-associated guanylate kinase-binding stalk, 2 domains of unknown function (DUFs) (DUF3694), and a proline-rich and cytoskeleton-associated protein glycine-rich domain. The DUFs were identified from amino acid sequence similarity on the Pfam database. It has been previously shown that both domains of DUF3694 directly bind recombinant VEGFR2 in vitro (Yamada, et al. (2007) Biochemistry 46:10039-45). To define the specific peptide sequence inhibiting VEGFR2 trafficking, further analysis of the second DUF3694 domain (DUF2, residues 1112-1281 of KIF13B) was carried out. This was based on stability of this domain and a sequence distinct from binding sites for other cargoes of KIF13B (Horiguchi, et al. (2006) J. Cell Biol. 174:425-436; Hanada, et al. (2000) J. Biol. Chem. 275:28774-2878). DUF2 was divided into 3 parts, DUF2A (residues […]), DUF2B (residues 1168-1216), and DUF2C (residues 1217-1281) and each part was expressed as a recombinant protein in bacteria. VEGFR2 was abundantly expressed in HUVECs; thus, cell lysate from HUVECs was incubated with these recombinant proteins on beads, and VEGFR2 binding was determined using the anti-VEGFR2 antibody.
To identify the minimum binding site on VEGFR2, DUF2C was further truncated (DUF2C1-9) (FIG. 1). […] Stability of the C5 peptide was attributed to the 4-6 C-terminal residues. Accordingly, replacing these C-terminal residues with another a peptide, one or more post-translational modifications, one or more non-natural amino acid residues, a macromolecule such as PEG, or a combination thereof, is expected to stabilize the KAI peptide.
Initially, peptide interaction with VEGFR2 was confirmed using the pull-down assay.
To further define the KIF13B residues involved in binding to VEGFR2, truncations of the DUF2C5 peptide were tested for binding to VEGFR2 (Table 3) and compared to binding of DUF2C5 and peptides flanking this region (FIG. 1).

[4] = test system: HUVECs; assay: […] migration assay; type: cell-based, human; conditions: TRANSWELL
Protocol: Specificity of the inhibitory effect of DUF2C5 was determined by EC migration induced by different stimuli in a […] migration assay. HUVECs migrated toward 2.2 nmol/L VEGF, 50 ng/mL basic fibroblast growth factor (bFGF), or 1 μmol/L sphingosine-1-phosphate (S1P) were visualized by hematoxylin staining, and number of migrated cells were counted. Data are expressed as means±SEM. N=3. *P<0.05 (one-way analysis of variance and Bonferroni multiple comparisons test).
(§1) Collagen invasion assay was performed as previously described (Kang, et al. (2011) J. Biol. Chem. 286:42017-26). In vitro capillary network formation on […] (BD Biosciences, San Jose, Calif.) and scratch wound healing assay were performed as previously described (Humtsoe, et al. (2010) Mol. Cell Biol. 30:1593-1606). Fibrin gel sprouting assay was performed as described by Nakatsu & Hughes ((2008) Methods Enzymol. 443:65-82). VEGF (2.2 nmol/L) stimulation was used for all in vitro angiogenesis assays. Transwell migration assay was performed as described by Kaplan, et al. ((2011) Free Radical Res. 45:1124-35) using VEGF (4.4 nmol/L), sphingosine-1-phosphate (S1P) (1 μmol/L), or basic fibroblast growth factor (bFGF) (50 ng/mL) in the presence or absence of kinesin-derived angiogenesis inhibitor (DUF2C5; residues 1238-1260 of KIF13B) at varying concentrations.
EC migration in response to DUF2C5 was determined using the scratch wound healing assay. […] The […] migration assay was also employed to determine whether the inhibitory effect of DUF2C5 on EC migration was specific to VEGF. HUVECs were placed in the […] chamber with or without DUF2C5 or CT23. […] PBS and CT23 had no effect on EC migration induced by all stimuli.

[5] = test system: HUVECs; assay: fibrin gel sprouting assay (3-dimensional culture of HUVECs on beads); type: cell-based, human; conditions: 1 μmol/L, VEGF-induced EC sprouting
Protocol: as §1
(§2) Changes in VEGF-induced network formation assay were assessed in […] plugs. […] VEGF-induced EC sprouting was also determined by 3-dimensional culture of HUVECs on beads (Nakatsu & Hughes (2008) Methods Enzymol. 443:65-82).

[6] = test system: HUVECs; assay: VEGF-induced capillary network formation on […] in vitro; type: cell-based, human; conditions: synthetic peptide added
Protocol: as §1
To test the bioactivity of the truncated mutant of KIF13B, DUF2C was expressed by lentivirus vector in HUVECs. […] The collagen invasion system (Kang, et al. (2011) J. Biol. Chem. 286:42017-42026) was used as another angiogenesis assay to test the peptides. After infection with control lentivirus, FLAG-DUF2C, or FLAG-DUF2, HUVECs were seeded on collagen gels. Cell invasion in response to proangiogenic stimuli SIP and VEGF in the gel was monitored for up to 24 hours.
Bioactivities in two-dimensional capillary network formation assay were assessed in HUVECs expressing KIF13B truncated mutants or vector controls. HUVECs were infected with lentiviruses encoding FLAG-C2, -C3, -C5, -C8, -C9, or vector.
as §2

Chain of VEGFR2 (P35968 20-1356): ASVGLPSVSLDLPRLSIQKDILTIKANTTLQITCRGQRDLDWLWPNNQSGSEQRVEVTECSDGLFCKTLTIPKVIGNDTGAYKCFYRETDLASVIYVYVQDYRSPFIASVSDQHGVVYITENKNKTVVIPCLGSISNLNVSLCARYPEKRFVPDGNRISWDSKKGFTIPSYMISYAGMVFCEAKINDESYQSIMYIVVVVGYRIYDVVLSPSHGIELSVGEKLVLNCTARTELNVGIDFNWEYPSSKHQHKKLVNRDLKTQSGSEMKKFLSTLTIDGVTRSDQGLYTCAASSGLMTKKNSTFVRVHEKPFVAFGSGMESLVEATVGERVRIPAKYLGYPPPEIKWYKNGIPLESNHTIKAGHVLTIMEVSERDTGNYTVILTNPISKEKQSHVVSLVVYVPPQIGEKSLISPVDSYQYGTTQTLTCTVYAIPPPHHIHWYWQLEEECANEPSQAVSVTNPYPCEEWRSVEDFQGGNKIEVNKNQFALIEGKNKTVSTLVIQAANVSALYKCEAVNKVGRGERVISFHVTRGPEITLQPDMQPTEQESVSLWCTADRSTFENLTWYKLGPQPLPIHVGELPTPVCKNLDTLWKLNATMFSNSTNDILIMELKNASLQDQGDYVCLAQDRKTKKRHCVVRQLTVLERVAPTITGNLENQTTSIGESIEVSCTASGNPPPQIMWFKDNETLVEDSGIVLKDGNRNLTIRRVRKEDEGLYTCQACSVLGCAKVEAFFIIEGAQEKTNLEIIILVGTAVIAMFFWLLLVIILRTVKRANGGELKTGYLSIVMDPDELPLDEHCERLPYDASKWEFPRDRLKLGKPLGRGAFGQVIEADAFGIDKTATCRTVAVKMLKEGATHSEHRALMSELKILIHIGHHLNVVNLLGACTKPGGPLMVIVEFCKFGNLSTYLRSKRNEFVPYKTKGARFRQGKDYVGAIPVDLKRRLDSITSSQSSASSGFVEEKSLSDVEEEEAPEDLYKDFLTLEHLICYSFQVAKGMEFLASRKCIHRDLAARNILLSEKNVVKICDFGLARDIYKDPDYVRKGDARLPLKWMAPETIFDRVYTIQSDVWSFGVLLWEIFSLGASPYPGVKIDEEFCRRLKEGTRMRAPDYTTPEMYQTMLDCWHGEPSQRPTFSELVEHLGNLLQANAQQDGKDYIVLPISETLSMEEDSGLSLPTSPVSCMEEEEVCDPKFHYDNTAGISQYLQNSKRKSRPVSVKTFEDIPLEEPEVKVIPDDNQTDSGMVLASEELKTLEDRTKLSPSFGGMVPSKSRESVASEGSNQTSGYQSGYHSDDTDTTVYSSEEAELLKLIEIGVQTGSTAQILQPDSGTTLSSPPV

CT23: negative control, C-terminal 23-amino acid peptide, residues 1650 to 1672 of KIF13B (RVRASELRSFSRMLAGDPGCSPG)
VEGF-induced proliferation [1]: had no effect | uptake of the peptides by HUVECs [2]: shown to internalize | VEGFR2 binding [3]: did not interact with VEGFR2 | bFGF-induced EC migration ([4]; stimulus 50 ng/mL bFGF): had no effect | S1P-induced EC migration ([4]; stimulus 1 μmol/L S1P): had no effect | VEGF-induced EC migration ([4]; stimulus VEGF): had no effect | number of branching point structures per bead [5]: 4-6 branches | number of sprouts per bead [5]: 13-16 sprouts | VEGF-induced network formation [6]: had no effect
